Results as given in patent US10022376B2 (Pfizer Inc., priority 2014, dated 2018).
Structures can show the parent of a compound that is named as a salt.

What follows are molecules tested on rhIFNγ stimulated STAT-3 phosphorylation in the A549 human epithelial cell line (assay: A549 Cell Assay: Inhibition of pSTAT3). Details: A549 cells.
Assay type: cell-based
Experimental: A549 Cell Assay: Inhibition of pSTAT3
An assay measuring the efficacy of JAK inhibitors on the functional response of recombinant human interferon γ (rhIFNγ) stimulated STAT-3 phosphorylation in the A549 human epithelial cell line.
A549 cells (ATCC #CCL-185), were plated at 30,000 cells/well in 96 well flat bottomed tissue culture plates (BD#353072) in 200 μL of growth medium (DMEM, Pfizer media prep, with 10% Fetal Bovine Serum, Sigma #F4135, 2 mM L-Glutamine, Pfizer media prep, 100 U/mL penicillin, Pfizer media prep, and 200 μg/ml streptomycin, Pfizer media prep), and cultured at 37° C., 5% CO2 incubator for 18 hours. Growth medium was removed by vacuum aspiration (V&P Scientific #vp187 bp-60), and 90 μL of pre-warmed assay medium (DMEM with 0.2% BSA, Miltenyi #130-091-376) was added to each well and incubated for 15 minutes at 37° C. 10 μL of vehicle control or test compound (final concentration range of 0.3 nM to 10 μM with 0.1% DMSO) was added to the cells. Plates were incubated at 37° C. for 1 hour. After compound incubation, 10 μL of 220 ng/mL recombinant human IFNγ (R&D Systems #285-IF, final rhIFNγ concentration of 20 ng/mL) was added to the cells and plates were incubated for 30 minutes at 37° C. Wells containing A549 cells, medium with 0.1% DMSO and no rhIFNγ were used as background controls. After rhIFNγ stimulation, media was aspirated from each well and 35 μL/well of iced-cold MSD lysis buffer containing protease and phosphatase inhibitors from Phospho-STAT3 Tyr705 assay kit (Meso-Scale Discovery #K150DID) was added to each well. Plates were incubated at 4° C. with shaking for 30 minutes. Cell lysates were assayed following the MSD Phospho-STAT3 Tyr705 assay kit protocol to detect pSTAT3.
Data were collected and transformed into percent inhibition and calculated using the following formula: […]

Structure (SMILES) | IC50
CNC(=O)c1n[nH]c2nc(-c3cc(F)c(O)cc3CC(F)(F)F)nc(NCc3ccccc3N(C)S(C)(=O)=O)c12 [Example 94] | 0.126 µM

Same assay, conditions: Homo sapiens; A549 cells

Structure (SMILES) | IC50
CCc1cc(O)c(F)cc1-c1cc2[nH]nc(-c3ncc[nH]3)c2c(NCc2ccccc2N(C)S(C)(=O)=O)n1 [Example 157, N-[2-({[6-(2-Ethyl-5-fluoro-4-hydroxyphenyl)-3-(1H-imidazol-2-yl)-1H-pyrazolo[4,3-c]pyridin-4-yl]amino}methyl)phenyl]-N-methylmethanesulfonamide] | 0.0262 µM
CN(c1ccc(O)cc1CNc1nc(-c2cc(F)c(O)cc2CC(F)(F)F)nc2[nH]nc(C(=O)Nc3ccc(NCCO)nc3)c12)S(C)(=O)=O [Example 99, 6-(5-Fluoro-4-hydroxy-2-(2,2,2-trifluoroethyl)phenyl)-4-((5-hydroxy-2-(N-methylmethylsulfonamido)benzyl)amino)-N-(6-((2-hydroxyethyl)amino)pyridin-3-yl)-1H-pyrazolo[3,4-d]pyrimidine-3-carboxamide] | 2.47 µM
CCN(c1ncc(C)cc1CNc1nc(-c2cc(F)c(O)cc2CC(F)(F)F)cc2[nH]nc(C(N)=O)c12)S(C)(=O)=O [Example 87, 4-[({2-[ethyl(methylsulfonyl)amino]-5-methylpyridin-3-yl}methyl)amino]-6-[5-fluoro-4-hydroxy-2-(2,2,2-trifluoroethyl)phenyl]-1H-pyrazolo[4,3-c]pyridine-3-carboxamide] | 0.213 µM
CNC(=O)c1n[nH]c2cc(-c3cc(F)c(O)cc3CC(F)(F)F)nc(NCc3ccccc3N(C)S(=O)(=O)c3ccc(C)nc3)c12 [Example 69, 6-[5-fluoro-4-hydroxy-2-(2,2,2-trifluoroethyl)phenyl]-N-methyl-4-[(2-{methyl[(6-methylpyridin-3-yl)sulfonyl]amino}benzyl)amino]-1H-pyrazolo[4,3-c]pyridine-3-carboxamide] | 0.0916 µM
CCN(c1ccc(O)cc1CNc1nc(-c2cc(F)c(O)cc2CC(F)(F)F)nc2[nH]nc(C(N)=O)c12)S(=O)(=O)c1ccccc1 [Example 107, 4-((2-(N-ethylphenylsulfonamido)-5-hydroxybenzyl)amino)-6-(5-fluoro-4-hydroxy-2-(2,2,2-trifluoroethyl)phenyl)-1H-pyrazolo[3,4-d]pyrimidine-3-carboxamide] | 0.899 µM
CN(c1ncc(Cl)cc1CNc1nc(-c2cc(F)c(O)cc2CC(F)(F)F)cc2[nH]nc(C(N)=O)c12)S(C)(=O)=O [Example 72, 4-[({5-chloro-2-[methyl(methylsulfonyl)amino]pyridin-3-yl}methyl)amino]-6-[5-fluoro-4-hydroxy-2-(2,2,2-trifluoroethyl)phenyl]-1H-pyrazolo[4,3-c]pyridine-3-carboxamide] | 0.0941 µM
CC(CO)CNc1nc(-c2cc(F)c(O)cc2CC(F)(F)F)nc2[nH]nc(-c3nc4c([nH]3)CCN(Cc3ccccc3)C4)c12 (stereo not shown) [Example 173, 4-(3-(5-Benzyl-4,5,6,7-tetrahydro-1H-imidazo[4,5-c]pyridin-2-yl)-4-((3-hydroxy-2-methylpropyl)amino)-1H-pyrazolo[3,4-d]pyrimidin-6-yl)-2-fluoro-5-(2,2,2-trifluoroethyl)phenol] | 0.22 µM
CCN(c1ccccc1CNc1nc(-c2cc(F)c(O)cc2CC(F)(F)F)nc2[nH]nc(C(=O)NC)c12)S(C)(=O)=O [Example 103, 4-((2-(N-ethylmethylsulfonamido)benzyl)amino)-6-(5-fluoro-4-hydroxy-2-(2,2,2-trifluoroethyl)-phenyl)-N-methyl-1H-pyrazolo[3,4-d]pyrimidine-3-carboxamide] | 0.235 µM
CCS(=O)(=O)N(C)c1ccccc1CNc1nc(-c2cc(F)c(O)cc2CC(F)(F)F)cc2[nH]nc(C(N)=O)c12 [Example 85, 6-(5-fluoro-4-hydroxy-2-(2,2,2-trifluoroethyl)phenyl)-4-((2-(N-methylethylsulfonamido)benzyl)amino)-1H-pyrazolo[4,3-c]pyridine-3-carboxamide] | 0.0129 µM
CCc1cc(O)c(F)cc1-c1cc2[nH]nc(C(=O)NC)c2c(NCc2cc(F)ccc2N(C)S(C)(=O)=O)n1 [Example 7, 6-(2-ethyl-5-fluoro-4-hydroxyphenyl)-4-({5-fluoro-2-[methyl(methylsulfonyl)amino]benzyl}amino)-N-methyl-1H-pyrazolo[4,3-c]pyridine-3-carboxamide] | 0.0057 µM
CN(c1ccc(Cl)cc1CNc1nc(-c2cc(F)c(O)cc2CC(F)(F)F)cc2[nH]nc(C(N)=O)c12)S(C)(=O)=O [Example 89, 4-({5-chloro-2-[methyl(methylsulfonyl)amino]benzyl}amino)-6-[5-fluoro-4-hydroxy-2-(2,2,2-trifluoroethyl)phenyl]-1H-pyrazolo[4,3-c]pyridine-3-carboxamide] | 0.0463 µM
CNC(=O)c1n[nH]c2cc(-c3cc(F)c(O)cc3CC(F)(F)F)nc(NCc3cc(C)cnc3N(C)S(C)(=O)=O)c12 [Example 67, 6-[5-fluoro-4-hydroxy-2-(2,2,2-trifluoroethyl)phenyl]-N-methyl-4-[({5-methyl-2-[methyl(methylsulfonyl)amino]pyridin-3-yl}methyl)amino]-1H-pyrazolo[4,3-c]pyridine-3-carboxamide] | 0.104 µM
CN(c1ccc(O)cc1CNc1nc(-c2cc(F)c(O)cc2CC(F)(F)F)nc2[nH]nc(-c3nnc(C4CCN(C(N)=O)CC4)[nH]3)c12)S(C)(=O)=O [Example 167, 4-(5-{6-[5-Fluoro-4-hydroxy-2-(2,2,2-trifluoroethyl)phenyl]-4-({5-hydroxy-2-[methyl(methylsulfonyl)amino]benzyl}amino)-1H-pyrazolo[3,4-d]pyrimidin-3-yl}-4H-1,2,4-triazol-3-yl)piperidine-1-carboxamide] | > 10 µM
CCc1cc(O)c(F)cc1-c1cc2[nH]ncc2c(NCc2ccccc2N(C)S(=O)(=O)CC)n1 [Example 135, N-[2-({[6-(2-ethyl-5-fluoro-4-hydroxyphenyl)-1H-pyrazolo[4,3-c]pyridin-4-yl]amino}methyl)-phenyl]-N-methylethanesulfonamide hydrochloride] | 0.0033 µM
CCc1cc(O)c(F)cc1-c1cc2[nH]nc(-n3cccn3)c2c(NCc2ccccc2N(C)S(C)(=O)=O)n1 [Example 162, N-[2-({[6-(2-Ethyl-5-fluoro-4-hydroxyphenyl)-3-(1H-pyrazol-1-yl)-1H-pyrazolo[4,3-c]pyridin-4-yl]amino}methyl)phenyl]-N-methylmethanesulfonamide] | 0.02 µM
CN(c1ccccc1CNc1nc(-c2cc(F)c(O)cc2CC(F)(F)F)cc2[nH]nc(C(N)=O)c12)S(=O)(=O)c1cccnc1 [Example 61, 6-[5-fluoro-4-hydroxy-2-(2,2,2-trifluoroethyl)phenyl]-4-({2-[methyl(pyridin-3-ylsulfonyl)amino]benzyl}amino)-1H-pyrazolo[4,3-c]pyridine-3-carboxamide] | 0.0712 µM
CNC(=O)c1n[nH]c2cc(-c3cc(F)c(O)cc3CC(F)(F)F)nc(NCc3ccccc3N(C)S(=O)(=O)c3cccnc3)c12 [Example 68, 6-[5-fluoro-4-hydroxy-2-(2,2,2-trifluoroethyl)phenyl]-N-methyl-4-({2-[methyl(pyridin-3-ylsulfonyl)amino]benzyl}amino)-1H-pyrazolo[4,3-c]pyridine-3-carboxamide] | 0.0439 µM
CCc1cc(O)c(F)cc1-c1cc2[nH]ncc2c(N(CCc2ccc(OC)c(OC)c2)Cc2ccccc2N(C)S(C)(=O)=O)n1 [Example 129, N-[2-({[2-(3,4-dimethoxyphenyl)ethyl][6-(2-ethyl-5-fluoro-4-hydroxyphenyl)-1H-pyrazolo[4,3-c]pyridin-4-yl]amino}methyl)phenyl]-N-methylmethanesulfonamide hydrochloride] | 0.0624 µM
CN(c1ccccc1CNc1nc(-c2cc(F)c(O)cc2C2CC2)cc2[nH]nc(C(N)=O)c12)S(C)(=O)=O [Example 47, 6-(2-cyclopropyl-5-fluoro-4-hydroxyphenyl)-4-({2-[methyl(methylsulfonyl)amino]benzyl}amino)-1H-pyrazolo[4,3-c]pyridine-3-carboxamide] | 0.282 µM
CN(c1ccccc1CNc1nc(-c2cc(F)c(O)cc2CC(F)(F)F)cc2[nH]nc(-n3cccn3)c12)S(C)(=O)=O [Example 163, N-{2-[({6-[5-Fluoro-4-hydroxy-2-(2,2,2-trifluoroethyl)phenyl]-3-(1H-pyrazol-1-yl)-1H-pyrazolo[4,3-c]pyridin-4-yl}amino)methyl]phenyl}-N-methylmethanesulfonamide] | 0.0986 µM
CCc1cc(O)c(F)cc1-c1cc2[nH]nc(C(=O)NC)c2c(N[C@@H](C)c2ccccc2N(C)S(C)(=O)=O)n1 [Example 39, 6-(2-Ethyl-5-fluoro-4-hydroxyphenyl)-N-methyl-4-{[(1S)-1-{2-[methyl(methylsulfonyl)amino]phenyl}ethyl]amino}-1H-pyrazolo[4,3-c]pyridine-3-carboxamide] | 0.0609 µM
